“And” between values parts separate entries of the source, which are not always exact repeats. Equal values may be shown once. Numbers after ± are expanded uncertainties.
Details: Liquid, Vibrating tube method

CCCCCCC(=O)OCC(COC(=O)CCCCCC)(COC(=O)CCCCCC)COC(=O)CCCCCC [pentaerythritol tetraheptanoate]
Details | mass density
323.14 K, 25915 kPa | 972.2 ± 1.2 kg/m3
323.14 K, 25942 kPa | 972.3 ± 1.2 kg/m3
323.14 K, 25974 kPa | 972.2 ± 1.2 kg/m3
323.14 K, 26002 kPa | 972.3 ± 1.2 kg/m3
323.14 K, 26088 kPa | 972.3 ± 1.2 kg/m3
323.14 K, 26774 kPa | 972.7 ± 1.2 kg/m3
323.14 K, 26808 kPa | 972.6 ± 1.2 kg/m3
323.14 K, 26837 kPa | 972.6 ± 1.2 kg/m3
323.14 K, 26866 kPa | 972.9 ± 1.2 kg/m3
323.14 K, 27024 kPa | 972.9 ± 1.2 kg/m3
323.14 K, 27055 kPa | 972.9 ± 1.2 kg/m3
323.14 K, 27085 kPa | 972.9 ± 1.2 kg/m3
323.14 K, 27114 kPa | 973 ± 1.2 kg/m3
323.14 K, 27150 kPa | 973 ± 1.2 kg/m3
323.14 K, 27179 kPa | 972.9 ± 1.2 kg/m3
323.14 K, 27214 kPa | 973 ± 1.2 kg/m3
323.14 K, 27244 kPa | 973 ± 1.2 kg/m3
323.14 K, 27274 kPa | 973.1 ± 1.2 kg/m3
323.14 K, 27565 kPa | 973.2 ± 1.2 kg/m3
323.14 K, 27596 kPa | 973.2 ± 1.2 kg/m3
323.14 K, 27731 kPa | 973.3 ± 1.2 kg/m3
323.14 K, 27762 kPa | 973.3 ± 1.2 kg/m3
323.14 K, 27825 kPa | 973.3 ± 1.2 kg/m3
323.14 K, 27863 kPa | 973.4 ± 1.2 kg/m3
323.14 K, 27895 kPa | 973.4 ± 1.2 kg/m3
323.14 K, 28027 kPa | 973.5 ± 1.2 kg/m3
323.14 K, 28373 kPa | 973.8 ± 1.2 kg/m3
323.14 K, 28406 kPa | 973.7 ± 1.2 kg/m3
323.14 K, 28439 kPa | 973.7 ± 1.2 kg/m3
323.14 K, 28757 kPa | 973.8 ± 1.2 kg/m3
323.14 K, 28791 kPa | 973.9 ± 1.2 kg/m3
323.14 K, 28831 kPa | 973.9 ± 1.2 kg/m3
323.14 K, 28904 kPa | 973.9 ± 1.2 kg/m3
323.14 K, 28938 kPa | 974 ± 1.2 kg/m3
323.14 K, 28973 kPa | 974.1 ± 1.2 kg/m3
323.14 K, 29048 kPa | 974.1 ± 1.2 kg/m3
323.14 K, 29083 kPa | 974.1 ± 1.2 kg/m3
323.14 K, 29124 kPa | 974.1 ± 1.2 kg/m3
323.14 K, 29158 kPa | 974.1 ± 1.2 kg/m3
323.14 K, 29193 kPa | 974.1 ± 1.2 kg/m3
323.14 K, 29227 kPa | 974.2 ± 1.2 kg/m3
323.14 K, 29270 kPa | 974.2 ± 1.2 kg/m3
323.14 K, 29304 kPa | 974.3 ± 1.2 kg/m3
323.14 K, 29346 kPa | 974.3 ± 1.2 kg/m3
323.14 K, 29381 kPa | 974.2 ± 1.2 kg/m3
323.14 K, 29416 kPa | 974.2 ± 1.2 kg/m3
323.14 K, 29451 kPa | 974.2 ± 1.2 kg/m3
323.14 K, 29494 kPa | 974.4 ± 1.2 kg/m3
323.14 K, 29529 kPa | 974.4 ± 1.2 kg/m3
323.14 K, 30197 kPa | 974.6 ± 1.2 kg/m3
323.14 K, 30480 kPa | 974.8 ± 1.2 kg/m3
323.14 K, 30518 kPa | 975 ± 1.2 kg/m3
323.14 K, 30556 kPa | 974.9 ± 1.2 kg/m3
323.14 K, 30596 kPa | 974.9 ± 1.2 kg/m3
323.14 K, 30642 kPa | 975 ± 1.2 kg/m3
323.14 K, 30681 kPa | 975.1 ± 1.2 kg/m3
323.14 K, 30728 kPa | 975.2 ± 1.2 kg/m3
323.14 K, 30768 kPa | 975 ± 1.2 kg/m3
323.14 K, 30807 kPa | 975.1 ± 1.2 kg/m3
323.14 K, 30846 kPa | 975 ± 1.2 kg/m3
323.14 K, 30893 kPa | 975.2 ± 1.2 kg/m3
323.14 K, 30933 kPa | 975.1 ± 1.2 kg/m3
323.14 K, 30973 kPa | 975.1 ± 1.2 kg/m3
323.14 K, 31020 kPa | 975.2 ± 1.2 kg/m3
323.14 K, 31060 kPa | 975.2 ± 1.2 kg/m3
323.14 K, 31108 kPa | 975.2 ± 1.2 kg/m3
323.14 K, 31148 kPa | 975.2 ± 1.2 kg/m3
323.14 K, 31188 kPa | 975.3 ± 1.2 kg/m3
323.14 K, 31237 kPa | 975.2 ± 1.2 kg/m3
323.14 K, 31277 kPa | 975.4 ± 1.2 kg/m3
323.14 K, 31319 kPa | 975.3 ± 1.2 kg/m3
323.14 K, 31359 kPa | 975.4 ± 1.2 kg/m3
323.14 K, 31408 kPa | 975.4 ± 1.2 kg/m3
323.14 K, 31448 kPa | 975.4 ± 1.2 kg/m3
323.14 K, 31497 kPa | 975.6 ± 1.2 kg/m3
323.14 K, 31539 kPa | 975.5 ± 1.2 kg/m3
323.14 K, 31580 kPa | 975.4 ± 1.2 kg/m3
323.14 K, 31621 kPa | 975.5 ± 1.2 kg/m3
323.14 K, 31671 kPa | 975.6 ± 1.2 kg/m3
323.14 K, 31712 kPa | 975.5 ± 1.2 kg/m3
323.14 K, 31762 kPa | 975.8 ± 1.2 kg/m3
323.14 K, 31804 kPa | 975.8 ± 1.2 kg/m3
323.14 K, 31847 kPa | 975.7 ± 1.2 kg/m3
323.14 K, 31898 kPa | 975.6 ± 1.2 kg/m3
323.14 K, 31940 kPa | 975.7 ± 1.2 kg/m3
323.14 K, 31982 kPa | 975.8 ± 1.2 kg/m3
323.14 K, 32450 kPa | 976.1 ± 1.2 kg/m3
323.14 K, 32496 kPa | 976 ± 1.2 kg/m3
323.14 K, 32540 kPa | 976 ± 1.2 kg/m3
323.14 K, 32584 kPa | 976.2 ± 1.2 kg/m3
323.14 K, 32637 kPa | 976.1 ± 1.2 kg/m3
323.14 K, 32681 kPa | 976.1 ± 1.2 kg/m3
323.14 K, 33266 kPa | 976.4 ± 1.2 kg/m3
323.14 K, 33360 kPa | 976.5 ± 1.2 kg/m3
323.14 K, 33416 kPa | 976.4 ± 1.2 kg/m3
323.14 K, 34625 kPa | 977.3 ± 1.2 kg/m3
323.15 K, 99.4 kPa | 955.6 ± 1.2 kg/m3
323.15 K, 99.5 kPa | 955.5 ± 1.2 kg/m3 and 955.6 ± 1.2 kg/m3 and 955.7 ± 1.2 kg/m3
323.15 K, 99.7 kPa | 955.7 ± 1.2 kg/m3 and 955.6 ± 1.2 kg/m3
323.15 K, 99.8 kPa | 955.7 ± 1.2 kg/m3
323.15 K, 99.9 kPa | 955.7 ± 1.2 kg/m3 and 955.8 ± 1.2 kg/m3 and 955.6 ± 1.2 kg/m3
323.15 K, 100 kPa | 955.7 ± 1.2 kg/m3 and 955.8 ± 1.2 kg/m3 and 955.6 ± 1.2 kg/m3
323.15 K, 100.2 kPa | 955.7 ± 1.2 kg/m3 [middle of 4 runs]
323.15 K, 100.4 kPa | 955.7 ± 1.2 kg/m3 and 955.8 ± 1.2 kg/m3 and 955.6 ± 1.2 kg/m3
323.15 K, 100.5 kPa | 955.6 ± 1.2 kg/m3 and 955.7 ± 1.2 kg/m3
323.15 K, 100.6 kPa | 955.6 ± 1.2 kg/m3 and 955.7 ± 1.2 kg/m3 and 955.8 ± 1.2 kg/m3
323.15 K, 100.7 kPa | 955.8 ± 1.2 kg/m3 and 955.7 ± 1.2 kg/m3 and 955.5 ± 1.2 kg/m3
323.15 K, 100.9 kPa | 955.7 ± 1.2 kg/m3
323.15 K, 101.1 kPa | 955.6 ± 1.2 kg/m3 and 955.7 ± 1.2 kg/m3
323.15 K, 101.3 kPa | 955.6 ± 1.2 kg/m3
323.15 K, 101.5 kPa | 955.8 ± 1.2 kg/m3 and 955.7 ± 1.2 kg/m3
323.15 K, 101.6 kPa | 955.7 ± 1.2 kg/m3
